This is an account of results in patent US10149855B2, “Gamma-secretase inhibition reduce APOC3 levels and plasma triglycerides” (THE TRUSTEES OF COLUMBIA UNIVERSITY IN THE CITY OF NEW YORK, priority 2014, dated 2018).

The subject of one data set is Nicastrin. Put plainly: shRNA-mediated knockdown of Nicastrin, ApoC3 secretion. The format is cell-based. The following applies: mouse hepatocytes (FIG. 25).
Data set [1] deals with Lean mice, diet induced obese (DIO) mice, and leptin-deficient obese (ob/ob) mice. Nature of the data set: Weight, glucose and insulin of mice administered GSI (DBZ) or vehicle. Type of data set: in vivo. The procedure:
Lean mice, diet induced obese (DIO) mice, and leptin-deficient obese (ob/ob) mice were administered either vehicle or GSI. [table]

A further data set deals with DIO mice. Nature of the data set: Fasted/refed plasma glucose and glucose clearance in GSI-treated mice. The settings on record: compared to vehicle (FIG. 3 Panel A). The format is in vivo.
The test system of data set [2] is lean, diet-induced obese (DIO) and leptin-deficient obese (ob/ob) mice. Nature of the data set: Plasma/serum triglyceride levels in mice treated with GSI or vehicle. Type of data set: in vivo. The procedure: Mice were administered GSI or vehicle alone to determine the effect of GSI treatment on serum triglyceride levels. […] Plasma triglyceride lowering in genetic (leptin deficient ob/ob mice) or diet-induced mouse models of obesity was even more profound, with reductions approaching 75% of vehicle-treated animals. […] L-Ncst mice had similar reductions in plasma triglyceride as GSI-treated mice, proof that the mechanism of GSI-induced reduction in plasma triglyceride is through effects on liver. L-Ncst mice had approximately 40% reduced plasma triglyceride as compared to control mice when fed normal chow, but this rises to a staggering 70% reduction when mice were challenged with high-fat diet feeding. […] As such, gamma-secretase inhibition with GSIs or liver-specific gamma-secretase blockers would be predicted to have a greater, and perhaps synergistic, effect in reducing plasma triglyceride as compared to drugs that solely target ApoC3 expression.

Data set [3] relates to mice. The settings on record: mouse, in vivo.
In data set [4] the test system is mice. Put plainly: Triglyceride secretion after lipoprotein lipase inhibition with Poloxamer 407. The format is in vivo. The following applies: plasma TG after lipoprotein lipase inhibition with Poloxamer 407 (FIG. 7). The source says:
DBZ-induced lower plasma TG in diet-induced obese (DIO) and leptin-deficient obese (ob/ob) mice is in the VLDL fraction. […] To differentiate these—we created a liver-specific gamma-secretase knockout mouse.

The next data set has as its system ApoC3. Nature of the data set: Plasma ApoC3 levels in GSI-treated mice. The format is in vivo. The source says:
Plasma triglyceride lowering in genetic (leptin deficient ob/ob mice) or diet-induced mouse models of obesity was even more profound, with reductions approaching 75% of vehicle-treated animals. […] L-Ncst mice had similar reductions in plasma triglyceride as GSI-treated mice, proof that the mechanism of GSI-induced reduction in plasma triglyceride is through effects on liver. L-Ncst mice had approximately 40% reduced plasma triglyceride as compared to control mice when fed normal chow, but this rises to a staggering 70% reduction when mice were challenged with high-fat diet feeding. […] As such, gamma-secretase inhibition with GSIs or liver-specific gamma-secretase blockers would be predicted to have a greater, and perhaps synergistic, effect in reducing plasma triglyceride as compared to drugs that solely target ApoC3 expression.

In the case of “SEQ ID NO. 59: shRNA for knockdown of Nicastrin, sequence CTCCTTCCACAATCGGTATTA (listed as DNA, chemistry not fully specified; listed as Rattus norvegicus)”, the ApoC3 secretion entry with Nicastrin was “reduces ApoC3 secretion”.

For `C[C@H](NC(=O)Cc1cc(F)cc(F)c1)C(=O)N[C@@H]1C(=O)N(C)c2ccccc2-c2ccccc21` [GSI, N-[(1S)-2-[[(7S)-6,7-dihydro-5-methyl-6-oxo-5H-dibenz[b,d]azepin-7-yl]amino]-1-methyl-2-oxoethyl]-3,5-difluoro-benzeneacetamide], the Glucose in data set [1] (DIO mice) is 72 ± 5 mg/dL; in data set [1] (lean mice), 64 ± 2 mg/dL; in data set [1] (ob/ob mice), 98 ± 6 mg/dL. The Insulin in data set [1] (DIO mice) is 1.33 ± 0.32 ng/mL; in data set [1] (lean mice), 0.49 ± 0.04 ng/mL; in data set [1] (ob/ob mice), 15.6 ± 3.25 ng/mL. In addition, the “fasted and refed glucose” value with DIO mice is “reduced both fasted as well as refed (or exogenous) glucose”. Besides, the “triglycerides in VLDL, LDL and HDL fractions” value in data set [2] (DIO and ob/ob mice (FIG. 5)) is on record as “lowered triglycerides in the VLDL fraction”. Also, the plasma triglyceride entry in data set [2] (lean mice) is “reduces plasma triglyceride in a dose-dependent manner”. Also, the plasma triglyceride reduction in data set [2] (ob/ob or diet-induced obese mice, relative to vehicle-treated animals) is approximately 75%. Moreover, the “plasma triglyceride (TG)” value in data set [2] (obese mice (DIO and ob/ob), compared to vehicle (FIG. 4)) was “lower plasma triglyceride”. The “gastrointestinal (GI) toxicity” value with mice [3] is on record as “not associated with apparent gastrointestinal (GI) toxicity”. Further, in the data set with mice [4], the TG secretion result was “does not affect TG secretion”. Moreover, the “plasma ApoC3 levels” value in the data set with ApoC3 was “markedly and proportionately reduced”.
